# According to patent publication US7371749B2, “Benzothiazole derivatives” (Hoffmann-La Roche Inc., priority 2004, dated 2008):
# What was measured:
# [1] = target: T1, human adenosine A2A receptor (Homo sapiens, UniProt P29274); assay: [3H]-SCH-58261 binding assay on human adenosine A2A receptor expressed in CHO cell membranes (SPA); conditions: displacement of [3H]-SCH-58261 (1 nM); recombinant receptor in CHO membranes; Ki by Cheng-Prussoff equation; read-out: hA2 (pKi) (converted)
# T1 construct: expressed in transfected cells; host or cells: CHO cells, semliki forest virus expression system; membrane preparation
# Procedure: Human Adenosine A2A Receptor
# The human adenosine A2A receptor was recombinantly expressed in Chinese hamster ovary (CHO) cells using the semliki forest virus expression system. Cells were harvested, washed twice by centrifugation, homogenized and again washed by centrifugation. The final washed membrane pellet was suspended in a Tris (50 mM) buffer containing 120 mM NaCl, 5 mM KCl, 2 mM CaCl2 and 10 mM MgCl2 (pH 7.4) (buffer A). The [^3H]-SCH-58261 (Dionisotti et al., 1997, Br J Pharmacol 121, 353; 1 nM) binding assay was carried out in 96-well plates in the presence of 2.5 μg of membrane protein, 0.5 mg of Ysi-poly-1-lysine SPA beads and 0.1 U adenosine deaminase in a final volume of 200 μl of buffer A. Non-specific binding was defined using xanthine amine congener (XAC; 2 μM). Compounds were tested at 10 concentrations from 10 μM-0.3 nM. All assays were conducted in duplicate and repeated at least two times. Assay plates were incubated for 1 hour at room temperature before centrifugation and then bound ligand determined using a Packard Topcount scintillation counter. IC50 values were calculated using a non-linear curve fitting program and Ki values calculated using the Cheng-Prussoff equation.
# T1 sequence (P29274 whole entry): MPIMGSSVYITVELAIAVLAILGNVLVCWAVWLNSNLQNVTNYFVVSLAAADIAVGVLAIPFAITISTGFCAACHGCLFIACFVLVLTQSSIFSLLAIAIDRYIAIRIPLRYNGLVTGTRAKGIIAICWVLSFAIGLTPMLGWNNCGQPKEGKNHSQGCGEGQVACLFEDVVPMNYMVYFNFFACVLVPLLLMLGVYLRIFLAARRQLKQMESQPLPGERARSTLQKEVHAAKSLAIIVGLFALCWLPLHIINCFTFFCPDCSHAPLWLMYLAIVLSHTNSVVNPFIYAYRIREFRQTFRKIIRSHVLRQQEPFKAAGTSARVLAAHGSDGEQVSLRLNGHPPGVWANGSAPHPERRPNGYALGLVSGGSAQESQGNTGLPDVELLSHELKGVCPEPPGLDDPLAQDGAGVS
SMILES,Ki [1] [nM],melting point [°C]
"COCCn1cc(C(=O)Nc2nc3c(OC)ccc(N4CCOCC4)c3s2)cn1 [Example 8, 1-(2-Methoxy-ethyl)-1H-pyrazole-4-carboxylic acid (4-methoxy-7-morpholin-4-yl-benzothiazol-2-yl)-amide]",0.398,
"COc1ccc(N2CCOCC2)c2sc(NC(=O)c3cnn(CCN4CCOCC4)c3)nc12 [Example 7, 1-(2-Morpholin-4-yl-ethyl)-1H-pyrazole-4-carboxylic acid (4-methoxy-7-morpholin-4-yl-benzothiazol-2-yl)-amide]",1,204 to 207
"COc1ccc(N2CCOCC2)c2sc(NC(=O)c3cnn(CCN(C)C)c3)nc12 [Example 6, 1-(2-Dimethylamino-ethyl)-1H-pyrazole-4-carboxylic acid (4-methoxy-7-morpholin-4-yl-benzothiazol-2-yl)-amide]",0.794,203 to 205
"COCCN(C)Cc1ncc(C(=O)Nc2nc3c(OC)ccc(N4CCOCC4)c3s2)n1C [Example 1, 2-{[(2-Methoxy-ethyl)-methyl-amino]-methyl}-3-methyl-3H-imidazole-4-carboxylic acid (4-methoxy-7-morpholin-4-yl-benzothiazol-2-yl)-amide]",0.501,176 to 178
"COc1ccc(N2CCOCC2)c2sc(NC(=O)c3cnn(CCN4CCCC4)c3)nc12 [Example 5, 1-(2-Pyrrolidin-1-yl-ethyl)-1H-pyrazole-4-carboxylic acid (4-methoxy-7-morpholin-4-yl-benzothiazol-2-yl)-amide]",0.794,190 to 192
"COc1ccc(N2CCOCC2)c2sc(NC(=O)c3cnc(CN(C)C)n3C)nc12 [Example 2, 2-Dimethylaminomethyl-3-methyl-3H-imidazole-4-carboxylic acid (4-methoxy-7-morpholin-4-yl-benzothiazol-2-yl)-amide]",0.631,229 to 231

# Continued, values first:
Ki [1] [nM],melting point [°C],SMILES
0.631,244 to 246,"COc1ccc(N2CCOCC2)c2sc(NC(=O)c3cnc(CN4CCOCC4)n3C)nc12 [Example 3, 3-Methyl-2-morpholin-4-ylmethyl-3H-imidazole-4-carboxylic acid (4-methoxy-7-morpholin-4-yl-benzothiazol-2-yl)-amide]"
0.501,242 to 245,"COCc1ncc(C(=O)Nc2nc3c(OC)ccc(N4CCOCC4)c3s2)n1C [Example 9, 2-Methoxymethyl-3-methyl-3H-imidazole-4-carboxylic acid (4-methoxy-7-morpholin-4-yl-benzothiazol-2-yl)-amide]"
1.58,255,"COc1ccc(N2CCOCC2)c2sc(NC(=O)c3cnc(CN4CCCC4)n3C)nc12 [Example 4, 3-Methyl-2-pyrrolidin-1-ylmethyl-3H-imidazole-4-carboxylic acid (4-methoxy-7-morpholin-4-yl-benzothiazol-2-yl)-amide]"
